System: pro-inflammatory cytokines in the BALF
Test: Multiplex analysis of cytokine levels in BALF, murine LPS ARDS model
Assay type: in vivo, mouse
Conditions: for IL1-alpha level in BALF / IP-10 level in BALF / MIG level in BALF: in pg/mL (unit assumed)
Source text: C57B16/N mice were obtained from Charles River Laboratories (Montreal, Quebec). Male mice, 20-25 g of body weight, were used throughout the studies. Animals were housed in specific pathogen[…]free conditions, and all experiments were approved by Institutional Animal Care and Use Committee (IPST_SL20200402-1). Animal studies are reported in compliance with […] guidelines.
All delivered mice were kept for one week as an acclimatization period prior to performing any experiments. Animals were housed in a maximum of two mice per cage under a 12[…]h light/12[…]h dark cycle at a temperature of ˜20-22° C. and 40-60% humidity. Food and water were available ad libitum. Each cage of mice was blindly assigned for different treatments or maintained as a control group according to the experimental design. The individual who carried out the experiments was not blinded as to treatment, but data analysis and experiments were otherwise blinded to avoid any bias.
In the ARDS group, mice received Escherichia coli O111:B4 lipopolysaccharide (50 μg in 0.05 mL saline, i.t.), while, in the control group, the animals received an instillation of saline (0.05 mL, i.t.). For intratracheal instillation, mice were slightly anesthetized with isoflurane.
The lipid SPPCT-800 was dissolved in water (low dose—2 mg/ml; high dose—20 mg/ml). For the 24-hour study, two treatment approaches were used. Mice received a single dose of SPPCT-800 (200 mg/kg, per gavage) as prevention (30 minutes before the LPS instillation), or as a single dose of either 20 mg/kg or 200 mg/kg as therapy (3-hour after the LPS instillation). For the 72-hour study, mice received a total of 8 treatments of SPPCT-800 (200 mg/kg) starting at 3-hour after the LPS instillation. Disease progression in mice was assessed by the evaluation of pulmonary functions, blood oxygen saturation, and body weight change. On the terminal day of each study (24 hours or 72 hours), measurement of cytokine levels in the plasma and BALF, and histopathology evaluations were done.
Differential Cell Counts in BALF. The left lung was clamped while 0.9 mL of cold PBS 1×, Protease Inhibitor 1× (SigmaFast®) solution (3×300 μL) was injected so bronchoalveolar lavage fluid (BALF) from the right lobe of the lungs could be collected. The protein assay was performed according to the manufacturer's instruction BCA Protein Assay (Pierce™-#23227). Briefly, a dilution factor of 5 was used (1 part of BALF: 4 part of PBS 1×). 10 μL, of the diluted sample was added into the microplate wells. 200 μL of the working reagent was added into each well. The plate was covered, incubated at 37° C. for 30 minutes. After a cool-down period, the absorbance at 562 nm was rapidly measured using a monochromatic spectrophotometer (SpectraMAX ® plus—Molecular Devices). The total BALF protein content was reported by multiplying the protein concentration by the dilution factor, and then multiplying by the total of BALF volume collected.
Multiplex analysis of mediators. The inventors quantified 31 different mediators in the BALF and plasma by using a Discovery Assay® (Mouse Cytokine and Chemokine Array 31-Plex (MD31), Eve Technologies Corp, Calgary, AB, Canada). The multiplex assay was performed at Eve Technologies using the Bio-Plex™ 200 system (Bio-Rad Laboratories, Inc., Hercules, CA, USA) and a Milliplex Mouse Cytokine/Chemokine kit (Millipore, St. Charles, MO, USA) according to Eve Tech protocol. The 31-plex consisted of Eotaxin, G-CSF, GM-CSF, IFN-γ, IL-1α, IL-1β, IL-2, IL-3, IL-4, IL-5, IL-6, IL-7, IL-9, IL-10, IL-12 (p40), IL-12 (p70), IL-13, IL-15, IL-17, IP-10, KC, LIF, MCP-1, M-CSF, MIG, MIP-1α, MIP-1β, MIP-2,RANTES, TNFα, and VEGF. The assay sensitivities of these markers range from 0.1 pg/mL to 33.3 pg/mL. Individual analytes' values and other assay details are available on Eve Technologies' website and in the Milliplex protocol.
Statistical Analysis. Results are expressed as means±SEM. […]

[1] = 24-hours, Pre: SPP4040 30 minutes before LPS
[2] = 24-hours, Thera: SPP4040 3 hours after LPS
[3] = 72-hours, Thera: eight SPP4040 injections over 72 hours after LPS

SMILES: CCCCCCCCCCCCCC(=O)OCC(COP(=O)([O-])OCC(COC(=O)CCC)OC(=O)CCC)OC(=O)CCCCCCCCCCCCC.CCCCCCCCCCCCCC(=O)OCC(COP(=O)([O-])OCC(COC(=O)CCC)OC(=O)CCC)OC(=O)CCCCCCCCCCCCC.[Mg+2] (stereo not shown) [SPPCT-800]
- Eotaxin level in BALF [1]: 10 ± 1
- G-CSF level in BALF [1]: 6468 ± 381
- GM-CSF level in BALF [1]: 26 ± 5
- IFN gamma level in BALF [1]: 2 ± 1
- IL1-beta level in BALF [1]: 69 ± 9
- IL2 level in BALF [1]: 1.5 ± 0.2
- IL3 level in BALF [1]: 0.4 ± 0.1
- IL4 level in BALF [1]: 0.08 ± 0.01
- IL5 level in BALF [1]: 10 ± 3
- IL6 level in BALF [1]: 856 ± 188
- IL7 level in BALF [1]: 1.7 ± 0.3
- IL9 level in BALF [1]: 7.0 ± 0.3
- IL10 level in BALF [1]: 1.4 ± 0.3
- IL12 (p40) level in BALF [1]: 1.6 ± 0.3
- IL12 (p70) level in BALF [1]: 7.4 ± 1.0
- IL13 level in BALF [1]: 0.7 ± 0.1
- IL15 level in BALF [1]: 5.1 ± 0.8
- IL17 level in BALF [1]: 8.3 ± 3.2
- KC level in BALF [1]: 622 ± 89
- LIF level in BALF [1]: 38 ± 8
- LIX level in BALF [1]: 94 ± 6
- M-CSF level in BALF [1]: 21 ± 3
- MCP-1 level in BALF [1]: 462 ± 103
- MIP-1alpha level in BALF [1]: 323 ± 52
- MIP-1beta level in BALF [1]: 801 ± 208
- MIP-2 level in BALF [1]: 771 ± 107
- RANTES level in BALF [1]: 45 ± 6
- TNF-alpha level in BALF [1]: 91 ± 32
- VEGF level in BALF [1]: 33 ± 2
- IL1-alpha level in BALF [1]: 183 ± 25
- IP-10 level in BALF [1]: 125 ± 10
- MIG level in BALF [1]: 6.8 ± 1.5
- Eotaxin level in BALF [2]: 14 ± 3
- G-CSF level in BALF [2]: 7060 ± 853
- GM-CSF level in BALF [2]: 46 ± 9
- IFN gamma level in BALF [2]: 3 ± 1
- IL1-beta level in BALF [2]: 103 ± 18
- IL2 level in BALF [2]: 1.5 ± 0.3
- IL3 level in BALF [2]: 0.5 ± 0.1
- IL4 level in BALF [2]: 0.10 ± 0.01
- IL5 level in BALF [2]: 10 ± 2
- IL6 level in BALF [2]: 850 ± 212
- IL7 level in BALF [2]: 1.7 ± 0.2
- IL9 level in BALF [2]: 8.8 ± 1.3
- IL10 level in BALF [2]: 1.4 ± 0.3
- IL12 (p40) level in BALF [2]: 2.0 ± 0.3
- IL12 (p70) level in BALF [2]: 6.0 ± 1.0
- IL13 level in BALF [2]: 1.1 ± 0.2
- IL15 level in BALF [2]: 3.1 ± 0.7
- IL17 level in BALF [2]: 13.6 ± 5.6
- KC level in BALF [2]: 1017 ± 140
- LIF level in BALF [2]: 39 ± 12
- LIX level in BALF [2]: 67 ± 20
- M-CSF level in BALF [2]: 27 ± 6
- MCP-1 level in BALF [2]: 494 ± 103
- MIP-1alpha level in BALF [2]: 564 ± 132
- MIP-1beta level in BALF [2]: 1924 ± 812
- MIP-2 level in BALF [2]: 1054 ± 106
- RANTES level in BALF [2]: 46 ± 6
- TNF-alpha level in BALF [2]: 153 ± 32
- VEGF level in BALF [2]: 34 ± 2
- IL1-alpha level in BALF [2]: 331 ± 67
- IP-10 level in BALF [2]: 163 ± 33
- MIG level in BALF [2]: 6.6 ± 2.0
- TNF-α levels in the BALF (in words) (72-hour study, p=0.0613): markedly reduced
- Eotaxin level in BALF [3]: 6 ± 2
- G-CSF level in BALF [3]: 1233 ± 572
- GM-CSF level in BALF [3]: 9 ± 1
- IFN gamma level in BALF [3]: 12 ± 1
- IL1-beta level in BALF [3]: 89 ± 24
- IL2 level in BALF [3]: 1.7 ± 0.4
- IL3 level in BALF [3]: 0.5 ± 0.2
- IL4 level in BALF [3]: 0.24 ± 0.05
- IL5 level in BALF [3]: 0.4 ± 0.1
- IL6 level in BALF [3]: 276 ± 151
- IL7 level in BALF [3]: 2.0 ± 0.5
- IL9 level in BALF [3]: 8.5 ± 1.6
- IL10 level in BALF [3]: 1.1 ± 0.5
- IL12 (p40) level in BALF [3]: 6.0 ± 1.2
- IL12 (p70) level in BALF [3]: 15.7 ± 3.9
- IL13 level in BALF [3]: 1.1 ± 0.2
- IL15 level in BALF [3]: 4.8 ± 2.6
- IL17 level in BALF [3]: 53.2 ± 26.9
- KC level in BALF [3]: 216 ± 15
- LIF level in BALF [3]: 11 ± 7
- LIX level in BALF [3]: 25 ± 18
- M-CSF level in BALF [3]: 11 ± 1
- MCP-1 level in BALF [3]: 84 ± 34
- MIP-1alpha level in BALF [3]: 1676 ± 554
- MIP-1beta level in BALF [3]: 1561 ± 440
- MIP-2 level in BALF [3]: 2649 ± 898
- RANTES level in BALF [3]: 57 ± 20
- TNF-alpha level in BALF [3]: 62 ± 17
- VEGF level in BALF [3]: 11 ± 3
- IL1-alpha level in BALF [3]: 576 ± 169
- IP-10 level in BALF [3]: 1583 ± 385
- MIG level in BALF [3]: 749.7 ± 186.7
- MIP-1α and MIP 1-β in the BALF (in words) (at 24 hours): Suppressive effects
- GM-CSF in the BALF (in words) (at 24 hours, 200 mg/kg preventive, 20 mg/kg therapeutic and 200 mg/kg therapeutic, P<0.001): highly significant depressions
- IFN-γ levels in the BALF (in words) (at 24 hours, P<0.001): profoundly depressed
- TNF-α in the BALF (in words) (at 24 hours, P=0.0959): markedly reduced
- IL-1β, IL-2, IL-3, IL-4, IL-5, IL-7, IL-9, IL-10, IL-12 (p40), IL-12 (p70), IL-13 and IL-15 in the BALF (in words) (at 24 hours, with the exception of IL-6): major reductions
- IFN-γ levels in the BALF (in words) (at 72 hours): Large reductions
- MCP-1 in the BALF (in words) (at 72 hours): inhibited
- GM-CSF in the BALF (in words) (at 72 hours, P<0.001): significant decreases
- G-CSF, VEGF, KC, LIF, LIX and M-CSF in the BALF (in words) (mouse, in vivo): suppressed

From patent publication US20240091242A1, “LIPIDS THAT REDUCE LUNG DAMAGE, IMPROVE PULMONARY FUNCTION AND DECREASE PRO-INFLAMMATORY CYTOKINES” (Signpath Pharma, Inc., priority 2021, published 2024)
